US20130156934A1, “MICROCAPSULES BY COACERVATION CONTAINING A PHARMACEUTICAL INCORPORATED IN THE COATING POLYMER” (APTALIS PHARMA LIMITED, priority 2003, published 2013)

Assays:
[1] = Dissolution test according to USP 26 at pH 6.8; format: physicochemical
Method: A dissolution test is carried out on the microcapsules thus obtained comparing them with anhydrous theophylline in crystalline form.
The dissolution test was performed according to USP 26.
A dissolution test is carried out on the microcapsules obtained in Examples 5 and 6 according to the method previously described for Example 4
Dissolution test was performed according to USP 26
A dissolution test is carried out on the microcapsules thus obtained compared to fluoxetine raw material.
Dissolution test was performed according to USP 26.

[2] = Dissolution test according to USP 26 at pH 1.2; format: physicochemical; conditions: caffeine
Method: The microcapsutes obtained, when analysed with an electronic microscope (FIG. 3), show a distribution of the particles of the active principle within the polymeric membrane in the form of solid particles that are prevalently disposed at the interface between the polymer and the core. […] Dissolution test was performed according to USP 26.

SMILES: Cn1c(=O)c2[nH]cnc2n(C)c1=O [Anhydrous Theophylline]
- Dissolution % at pH 6.8, 5 min ([1]; theophylline, USP 26): 65%
- Dissolution % at pH 6.8, 10 min ([1]; theophylline, Table of Example 7, lower head): 100%
- Dissolution % at pH 6.8, 15 min ([1]; 15 min, theophylline, USP 26): 100%

SMILES: Cn1c(=O)c2c(ncn2C)n(C)c1=O [Caffeine]
- Dissolution % at pH 1.2, 60 min [2]: 100%

SMILES: CNCCC(Oc1ccc(C(F)(F)F)cc1)c1ccccc1 (stereo not shown) [Fluoxetine]
- Dissolution % at pH 6.8, 5 min ([1]; fluoxetine, USP 26): 55%
- Dissolution % at pH 6.8, 10 min ([1]; fluoxetine, USP 26): 75%
- Dissolution % at pH 6.8, 20 min ([1]; 20 min, fluoxetine, USP 26): 100%
